Tests used:
cAMP = cAMP level (elevation of cAMP); format: cell-based, human
[1] = system: adipocytes isolated from the thigh area of volunteers (adipocyte β receptors); assay: Lipolysis stimulation by glycerin release in isolated adipocytes; format: cell-based, human; details: for Concentration at maximum stimulation: lipolysis; for Emax: Homo sapiens, Adipocyte, read-out: Maximum stimulation (lipolysis)
Procedure: Glycerin release was used as a parameter to quantify lipolysis in actively metabolism adipocytes isolated from the thigh area of volunteers and evaluate various ingredients for their ability to stimulate adipocyte β receptors. Refined, or purified Malvaceae extracts comprising preferred aqueous or lipophilic fractions as described above, and some known β-adrenergic stimulators used in anticellulite treatments, namely the xanthines aminophylline, caffeine and theophylline, were tested. Also tested, for comparative purposes, were a crude Hibiscus Abelmoschus extract and a herbal ingredient that has been used in anticellulite compositions, ivy extract.

[2] = system: isolated adipocytes (adipocyte α2-receptors); assay: Inhibition of adipocyte lipid synthesis (lipogenesis); format: cell-based
Text: The results obtained are reported below in Table 2.

[3] = glycerin release, most effective concentration

| Structure (SMILES) | Elevation of cAMP (cAMP) | Maximum stimulation (lipolysis) [1, 3] [%] | Concentration at maximum stimulation [1] [mg/mL] | Lipogenesis inhibition (in words) [2] | Maximum inhibition of adipocyte fat [2] | Emax [1, 3] [%] |
| --- | --- | --- | --- | --- | --- | --- |
| Cn1c(=O)c2[nH]cnc2n(C)c1=O [aminophylline] | ns | 54.0 | 1.00 | No lipogenesis inhibition activity | none | – |
| Cn1c(=O)c2c(ncn2C)n(C)c1=O [caffeine] | ns | – | 2.00 | – | – | 51 |
| Cn1c(=O)c2[nH]cnc2n(C)c1=O [theophylline] | ns | – | 1.00 | No lipogenesis inhibition activity | none | 45 |
